Where two headings read alike, the source gives them in different places.
Key:
HCT116 cells = format: cell-based; conditions: 72 hours drug incubation, colonies counted after 7 days
Description: This example provides directions for growing cells and testing compounds of the invention for their effect on the growth of the cells.
Cell Colony Formation Assay
Four hundred cells (HCT 116, PC-3) or five hundred cells (VM46) were plated in 60 mm Petri dishes containing 2.7 ml of medium (modified McCoy's 5a medium) containing 10% fetal bovine serum and 100 units/ml penicillin and 100 mg/ml streptomycin. The cells were incubated in a CO2 incubator at 37° C. for 5 hours for attachment to the bottom of Petri dishes. Drugs were made fresh in medium at ten times the final concentration, and then 0.3 ml of this stock solution was added to the 2.7 ml of medium in the dish. The cells were then incubated with drugs for 72 hours at 37° C. At the end of the incubation the drug-containing media were decanted, the dishes were rinsed with 4 ml of Hank's Balance Salt Solution (HBSS), 5 ml of fresh medium was added, and the dishes were returned to the incubator for colony formation.
Values of ID50 (the drug concentration producing 50% inhibition of colony 5 formation) may be determined for each tested compound.

C3H/HeJ mice = test: in vivo
Description: (§1) This example provides directions for performing in vivo toxicity tests of the compounds of the invention on C3H/HeJ mice.
(§2) Acute toxicities of the compounds of this invention are evaluated on C3H/HeJ mice (body weight 18-22 g). The MTD40 (maximum tolerated dose at day 40) values are determined by the standard procedure described by Gad and Chengelis (see, for example, “Acute Toxicology Testing,” 2nd Ed., Shayne O. Gad and Christopher P. Chengelis, pp. 186-195 (Academic Press).) In the consecutive type studies, 2 mice are dosed at low and moderate doses of 40 and 100 mg/kg. If no severe and irreversible toxicity (euthanasia is required) occurs at these doses, a new pair of animals is initiated at 180 mg/kg, which is 1.8 times higher than 100 mg/kg. Sequential dosages (about 3 doses on 3 pairs of animals, i.e. 2 mice for each drug dose) are increased by a factor of 1.8 until severe and irreversible toxicity (euthanasia is required) occurred. Then another pair of animals is initiated at the highest nonlethal dosage, and successive dosages were increased by a factor of 1.15. The result of this exercise is two dosages, one apparently nonlethal and the other lethal if severe and irreversible toxicity occurs and euthanasia is required, separated by a factor of 1.15. Six mice are dosed at each dosage. If no severe and irreversible toxicity occurs at the lower dosage and at least one with severe and irreversible toxicity occurs at the higher dose, then the lower dose is considered to be the MTD. The compounds of this invention are administered to C3H/HeJ mice by intraperitoneal injection. Drug toxicity is evaluated on mice checked daily for 45 days. The toxicity parameters reported will be the MTD40.

in vivo = conditions: C3H/HeJ, mouse, in vivo, ip
Description: as §1, §2

[1] = cited from earlier work
[2] = test system: mouse leukemia L1210 system; conditions: cited from earlier work
[3] = maximum tolerated dose, C3H/HeJ mice, intraperitoneal injection

Structure (SMILES) | Survival (%) of HCT116 (HCT116 cells; 1 nM) [%] | Survival (%) of HCT116 (HCT116 cells; 10 nM) [%] | Survival (%) of HCT116 (HCT116 cells; 100 nM) [%] | MTD (C3H/HeJ mice; [3]) [mg/kg] | MTD at 45 days (in vivo) [mg/kg] | solubility in water [1] | antitumor activity [2] | MTD (C3H/HeJ mice; mouse, in vivo, ip) [mg/kg]
CC[C@@]1(OC(=O)CCN2CCN(c3cccc(OC)c3)CC2)C(=O)OCc2c1cc1n(c2=O)Cc2cc3ccccc3nc2-1 [001129 (8), Camptothecin-20S-ester of 3-[4-(3-methoxyphenyl)-1-piperazinyl]propionic Acid] | 73.26 | 0 | 0 | 150 |  |  |  | 
CCC1(OC(=O)CCN2C(=O)C=CC2=O)C(=O)OCc2c1cc1n(c2=O)Cc2cc3ccccc3nc2-1 (stereo not drawn) [010104 (2), Camptothecin-20S-Ester of 3-Maleimidopropionic Acid] |  | 95.54 | 0 |  |  |  |  | 
CC[C@@]1(OC(=O)CCN2CCN(c3ccc([N+](=O)[O-])cc3)CC2)C(=O)OCc2c1cc1n(c2=O)Cc2cc3ccccc3nc2-1 [010105 (9), Camptothecin-20S-ester of 3-[4-(4-nitrophenyl)-1-piperazinyl]propionic Acid] | 94.14 | 0 | 0 |  |  |  |  | 
CC[C@@]1(OC(=O)CCN2CCN(c3ccc(F)cc3)CC2)C(=O)OCc2c1cc1n(c2=O)Cc2cc3ccccc3nc2-1 [010124 (12), Camptothecin-20S-ester of 3-[4-(4-fluorophenyl)-1-piperazinyl]propionic Acid] | 100 | 0 | 0 |  |  |  |  | 
CC[C@@]1(OC(=O)CCN2CCN(c3cccc(C(F)(F)F)c3)CC2)C(=O)OCc2c1cc1n(c2=O)Cc2cc3ccccc3nc2-1 [001101 (6), Camptothecin-20S-ester of 3-[4-(3-trifluoromethylphenyl)-1-piperazinyl]-propionic acid] | 100 | 0 | 0 | 150 |  |  |  | 
CC[C@@]1(OC(=O)CCN2C(=O)c3ccccc3C2=O)C(=O)OCc2c1cc1n(c2=O)Cc2cc3ccccc3nc2-1 [000503 (1), Camptothecin-20S-Ester of 3-Phthalimidopropionic Acid] |  | 95.24 | 0 | 150 |  |  |  | 
CCc1c2c(nc3ccc(OC(=O)N4CCC(N5CCCCC5)CC4)cc13)-c1cc3c(c(=O)n1C2)COC(=O)[C@]3(O)CC [Irinotecan, 7-ethyl-10[4-(1-piperidino)-1-piperidino]carbonyloxy CPT, reference compound] |  |  | 90.52 |  |  |  |  | 
CC[C@@]1(OC(=O)CCN2CCN(Cc3ccccc3)CC2)C(=O)OCc2c1cc1n(c2=O)Cc2cc3ccccc3nc2-1 [001204 (7), Camptothecin-20s-ester of 3-[(4-benzyl)-1-piperazinyl]propionic Acid] | 64.04 | 0 | 0 |  |  |  |  | 
CC[C@@]1(O)C(=O)OCc2c1cc1n(c2=O)Cc2cc3ccccc3nc2-1 [Camptothecin, (S)-4-ethyl-4-hydroxy-1H-pyrano-[3′,4′:6,7]indolizinol[1,2-b]quinoline-3,14(4H, 12H)-dione] |  | 73.72 | 0 |  | 12 | essentially insoluble | antitumor activity | 
CC[C@@]1(OC(=O)CCN2C(=O)c3cccc4c([N+](=O)[O-])ccc(c34)C2=O)C(=O)OCc2c1cc1n(c2=O)Cc2cc3ccccc3nc2-1 [001128 (4), Camptothecin-20S-Ester of 3-(4-Nitro-1,8-Naphthalimide)propionic Acid] |  |  |  |  |  |  |  | 150
CC[C@@]1(OC(=O)CCN2CCN(c3ccccc3Cl)CC2)C(=O)OCc2c1cc1n(c2=O)Cc2cc3ccccc3nc2-1 [010117 (11), Camptothecin-20S-ester of 3-[4-(2-chlorophenyl)-1-piperazinyl]propionic Acid] | 100 | 0 | 0 |  |  |  |  | 
